This passage reports minimal effective concentration results from patent US9200008B2 (ASKA PHARMACEUTICAL CO., LTD., priority 2010, dated 2015).

Structures are written as SMILES.

The subject of the assay is Human prostate cancer cell lines (PC-3 cells). As to the kind of experiment: Measurement of cell death-inducing activity (Test Example 1). The format is cell-based. The note with it: PC-3, 48 h, 48 hours after addition, tested at 10, 1, 0.1, 0.025 and 0.00625 μmol/L, qualitative evaluation of 10 fields, read-out: Concentration showing the cell death-inducing activity (cell death-inducing rate not less than 40%). The method, then: The cell death-inducing activity of the compound represented by the formula (1) or the salt thereof was measured as follows.
Human prostate cancer cell lines (PC-3 cells) were seeded to 6-well plates at 1×10^5 cells/2 mL/well, and cultured in the presence of 5% CO2 at 37° C. for 48 hours. Thereafter, each compound was added thereto so as to provide 10, 1, 0.1, 0.025 and 0.00625 μmol/L. As a control, DMSO was added. After the addition, the cells were continuously cultured for 48 hours. […] When the cell death-inducing rate was not less than 40%, the compound was judged to have the cell death-inducing activity.

As to `Cc1nc(-c2ccc(F)cc2Cl)sc1NC(=O)OCc1ccc2nn(C)cc2c1` [Example 9-148], the minimal effective concentration was 1 µM. With `COc1ccc(/C=N/NC(=O)c2sc(-c3cccc(Cl)c3C)nc2C)cc1O` [Example 23-125], the minimal effective concentration was 1 µM. For `CCc1nc2cc(COC(=O)Nc3cc(-c4ccc(Cl)cc4Cl)nn3C)ccc2n1C` [Example 9-241] the value was 10 µM; for `CCn1cnc2cc(COC(=O)Nc3sc(-c4ccc(C)cc4C)nc3C)ccc21` [Example 9-62], 0.00625 µM; for `CCc1nc(-c2ccc(C)cc2C)sc1NC(=O)OCc1ccc2c(c1)nc1n2CCC1` [Example 9-350], 0.1 µM. On to `Cc1nc(-c2cccc(F)c2)sc1NC(=O)OCc1ccc2c(c1)ncn2C` [Example 9-44], for which the minimal effective concentration is 1 µM. For `COc1cc(Cl)ccc1-c1cc(NC(=O)OCc2ccc3c(cnn3C)c2)n(C)n1` [Example 9-280] the value was 0.00625 µM.

Regarding `COc1ccccc1-c1nc(C)c(C(=O)N/N=C/c2ccc3[nH]ccc3c2)s1` [Example 23-90], the minimal effective concentration was 0.1 µM. In the case of `COc1ccc(/C=N/NC(=O)c2cc(-c3ccc(Cl)cc3)c[nH]2)cc1O` [Example 24-2, 4-(4-Chlorophenyl)-1H-pyrrole-2-carboxylic acid [1-(3-hydroxy-4-methoxyphenyl)methylidene]hydrazide], the minimal effective concentration was 1 µM. For `COc1ccccc1-c1nscc1NC(=O)OCc1ccc2c(c1)ncn2C` [Example 45-6] the value was 1 µM; for `Cc1ccncc1-c1nc(C)c(C(=O)N/N=C/c2cc(C)c(O)c(C)c2)s1` [Example 23-136], 1 µM; for `Cn1cnc2cc(NC(=O)OCc3cc(-c4ccc(Cl)cc4Cl)ns3)ccc21` [Example 47-1], 0.1 µM. As to `COc1ccccc1-c1nc(C)c(NC(=O)OCc2ccc3c(c2)nnn3C)s1` [Example 9-13], the minimal effective concentration was 0.025 µM. The figure for `COc1ccc(CN(C)NC(=O)c2sc(-c3ccc(Cl)cc3OC)nc2C)cc1F` [Example 16-20] is 0.1 µM. For `COc1cc(Cl)ccc1-c1cc(COC(=O)Nc2ccc3c(c2)ncn3C)sn1` [Example 47-4] the value was 0.00625 µM; for `COc1ccc(CN(C)NC(=O)c2sc(-c3ccc(F)cc3F)nc2C)cc1` [Example 16-7], 1 µM.

As to `Cc1ccccc1-c1nc(C)c(NC(=O)OCc2ccc3c(c2)ncn3C)s1` [Example 9-33], the minimal effective concentration is 0.025 µM. The figure for `COc1ccccc1-c1nc(C)c(C(=O)N/N=C/c2ccc(SC)cc2)s1` [Example 23-70] is 0.1 µM.

As for `COc1cc(F)ccc1-c1cc(NC(=O)OCc2ccc3c(c2)ncn3C)n(C)n1` [Example 9-217], the minimal effective concentration is 0.025 µM.

Take `COc1cc(Cl)ccc1-c1nc(C)c(COC(=O)Nc2ccc3c(c2)nc2n3C(C)CCC2)s1` (stereo not shown) [Example 13-36]: the minimal effective concentration amounted to 10 µM. As for `CCn1nnc2cc(COC(=O)Nc3sc(-c4ccc(Cl)cc4OC)nc3C)ccc21` [Example 9-24], the minimal effective concentration was 0.00625 µM. The figure for `CCc1nc(-c2ccc(F)cc2C)sc1NC(=O)OCc1ccc2nn(CC)cc2c1` [Example 9-369] is 1 µM; for `COc1ccc(/C=N/NC(=O)c2cnc(-c3ccccc3C)[nH]2)cc1O` [Example 25-3, 2-(2-Methylphenyl)-3H-imidazole-4-carboxylic acid[1-(3-hydroxy-4-methoxyphenyl)methylidene]hydrazide] it is 10 µM; for `COc1cc(Cl)ccc1-c1nc(C)c(COC(=O)Nc2ccc3c(c2)nc2n3CCOC2)s1` [Example 13-23] it is 1 µM. As to `COc1cc(Cl)ccc1-c1nc(C)c(NC(=O)OCc2ccc3c(c2)nnn3C)s1` [Example 9-15], the minimal effective concentration was determined as 0.00625 µM.

In the case of `Cn1nc(-c2ccccc2C(F)(F)F)cc1NC(=O)OCc1ccc2c(cnn2C)c1` [Example 9-278], the minimal effective concentration is 10 µM. For `Cc1ccccc1-c1cc(NC(=O)OCc2ccc3c(cnn3C)c2)n(C)n1` [Example 9-277] the value was 10 µM; for `CCn1c(C)nc2cc(NC(=O)OCc3sc(-c4ccc(Cl)cc4C)nc3C)ccc21` [Example 13-21], 0.1 µM. On to `CCn1nc(-c2ccc(F)cc2OC)cc1COC(=O)Nc1ccc2c(c1)ncn2C` [Example 13-81], for which the minimal effective concentration was determined as 0.025 µM. For `Cc1ccc(-c2nc(C)c(COC(=O)Nc3ccc4ncsc4c3)s2)c(C)c1` [Example 41-1, Benzothiazol-6-ylcarbamic acid 2-(2,4-dimethylphenyl)-4-methylthiazol-5-ylmethyl ester] the value was 10 µM. For `Cc1cc(/C=N/NC(=O)c2cc(-c3ccc(Cl)cc3Cl)ns2)cc(C)c1O` [Example 27-4] the value was 1 µM. For `CCn1cc2cc(COC(=O)Nc3sc(-c4ccc(C)cc4C)nc3C)ccc2n1` [Example 9-157] the value was 0.1 µM; for `Cc1cc(/C=N/NC(=O)c2sc(-c3ccc(Cl)cc3)nc2C(C)(C)C)cc(C)c1O` [Example 23-21], 10 µM; for `COc1ccc(CN(C)NC(=O)c2sc(-c3ccc(F)cc3OC)nc2C)cc1` [Example 16-8], 0.1 µM. With `COc1cc(Cl)ccc1-c1cc(COC(=O)Nc2ccc3c(c2)nc2n3CCC2)n(C)n1` [Example 13-108], the minimal effective concentration was 0.00625 µM. Regarding `Cc1cc(F)ccc1-c1nc(C)c(COC(=O)Nc2ccc3c(c2)nc2n3CCSC2)s1` [Example 43-1, (3,4-Dihydro-1H-2-thia-4a,9-diazafluoren-7-yl)carbamic acid 2-(4-fluoro-2-methylphenyl)-4-methylthiazol-5-ylmethyl ester], the minimal effective concentration was determined as 0.1 µM. The figure for `CCc1nc(-c2ccc(F)cc2C)sc1NC(=O)OCc1ccc2c(c1)nc1n2CCCC1` [Example 9-355] is 1 µM; for `CCn1nc(-c2ccccc2OC)cc1COC(=O)Nc1ccc2c(c1)nc1n2CCCC1` [Example 13-115] it is 0.1 µM; for `O=C(N/N=C/c1ccc(O)cc1Cl)c1cc(-c2ccc(Cl)cc2Cl)n[nH]1` [Example 21-8] it is 10 µM. On to `COc1ccccc1-c1cc(NC(=O)OCc2ccc3c(c2)nc2n3CCOC2)n(C)n1` [Example 9-243], for which the minimal effective concentration was determined as 0.1 µM. For `COc1ccc(-c2nc(C)c(NC(=O)OCc3ccc4c(c3)nc3n4CCOC3)s2)c(OC)c1` [Example 9-95] the value was 0.025 µM. For the compound `Cc1cc(F)ccc1-c1nc(C)c(COC(=O)Nc2ccc3c(c2)ncn3C)s1` [Example 13-9], the minimal effective concentration is 0.025 µM. On to `COc1ccccc1-c1nc(C)c(C(=O)N/N=C/c2ccc3occc3c2)s1` [Example 23-159], for which the minimal effective concentration came out at 0.1 µM.

For the compound `Cc1nc2cc(COC(=O)Nc3sc(-c4ccc(Cl)cc4C)nc3C)ccc2s1` [Example 37-4], the minimal effective concentration was 1 µM.

For the compound `COc1cc(Cl)ccc1-c1cc(COC(=O)Nc2ccc3c(c2)nc2n3CCOC2)sn1` [Example 47-9], the minimal effective concentration stood at 0.00625 µM. As for `COc1cc(Cl)ccc1-c1nc(C)c(NC(=O)OCc2ccc3c(c2)ncn3C)s1` [Example 9-39], the minimal effective concentration came out at 0.00625 µM. The figure for `Cc1ccc(-c2nc(C)c(C(=O)N/N=C/c3cc(C)c(O)c(C)c3)s2)c(C)c1` [Example 23-122] is 0.1 µM; for `COc1cc(Cl)ccc1-c1nc(C)c(C(=O)N/N=C/c2cc(C)c(O)c(C)c2)s1` [Example 23-84] it is 0.1 µM. For `CCn1nc(-c2ccc(Cl)cc2OC)cc1NC(=O)OCc1ccc2c(c1)nc1n2CCOC1` [Example 9-248] the value was 0.025 µM; for `Cc1ccccc1-c1cc(NC(=O)OCc2ccc3c(c2)nc(C)n3C)n(C)n1` [Example 9-238], 10 µM. In the case of `CCn1cnc2cc(NC(=O)OCc3sc(-c4ccco4)nc3C)ccc21` [Example 13-57], the minimal effective concentration amounted to 1 µM. As to `COc1cc(C)ccc1-c1cc(COC(=O)Nc2ccc3c(c2)ncn3C)n(C)n1` [Example 13-88], the minimal effective concentration was found to be 0.00625 µM. For `Cc1cccc(-c2nc(C)c(C(=O)N/N=C/c3cc(C)c(O)c(C)c3)s2)c1C` [Example 23-23] the value was 1 µM; for `COc1ccc(/C=N/NC(=O)c2cc(-c3ccccc3OC)ns2)cc1O` [Example 27-7], 0.1 µM; for `CCc1nc(-c2ccc(Cl)cc2C)sc1NC(=O)OCc1ccc2c(c1)nc1n2CCC1` [Example 9-349], 0.025 µM. As to `CCn1cnc2cc(NC(=O)OCc3sc(-c4ccc(Cl)cc4OC)nc3C)ccc21` [Example 13-13], the minimal effective concentration was determined as 0.1 µM. Consider `COc1ccc(/C=N/N=C(\C)c2sc(-c3ccc(Cl)cc3)nc2C)cc1O` [Example 30-2], for which the minimal effective concentration came out at 1 µM. For `CCn1cnc2cc(COC(=O)Nc3cc(-c4ccc(Cl)cc4OC)ns3)ccc21` [Example 45-3] the value was 10 µM; for `COc1ccccc1-c1nc(C)c(NC(=O)OCc2ccc3c(c2)nc(C)n3C)s1` [Example 9-74], 1 µM; for `COc1ccc(/C=N/NC(=O)c2sc(C3CCCCC3)nc2C)cc1O` [Example 23-128], 1 µM. Turning to `Cc1nc(-c2sccc2Cl)sc1NC(=O)OCc1ccc2c(c1)ncn2C` [Example 9-192], the minimal effective concentration was determined as 1 µM.
